Assay results from patent publication US20230146870A1, “METHOD TO QUANTIFY AFFINITY AND SELECTIVITY OF SMALL MOLECULES FOR PROTEINS IN LIVING CELLS” (Ohio State Innovation Foundation, priority 2021, published 2023).

How the values were obtained:
C1A-C1A-EYFP (PKCγ) = target: T1, C1A-C1A-EYFP (PKCγ) (UniProt P63319); assay: Cellular binding by flow cytometry, HEK293 cells expressing C1A-C1A-EYFP (PKCγ)
T1 construct: apparent Kd; other: verapamil 100 μM, 90 min, 37° C., DMEM high glucose, 4% FBS; half time (t1/2) of cellular fluorescence; other: 33 at 5 μM, verapamil 100 μM, room temperature; fused on or other part: EYFP at the C-terminus; the C1A module is present twice in one chain
Excerpt: The dissociation constant can be defined as the ratio of koff divided by kon. This value is also the concentration where the ligand occupies 50% of the receptor.^94 Kd is only meaningful when equilibrium is reached, where the ligand-receptor complex is formed at the same rate as it dissociates into free ligand and receptor (FIG. 15). This binding equilibrium is established when essentially no further change in the amount of bound complex is observed over time. To evaluate the time needed for equilibration, we treated HEK293 cells that overexpress C1A-C1A-EYFP (PKCγ) with 33 (0 and 5 μM) in the presence or absence of verapamil (100 μM) and cellular fluorescence was measured by flow cytometry as a function of time (FIG. 18A). […] This optimization was used to establish a 90 min equilibration period for further assay optimization.
The presence of fetal bovine serum (FBS) in the culture media also influenced the binding by sequestering the free ligand. The assay conditions were finalized using HEK293 cells incubated with the probe in the presence of verapamil for 90 min at 37° C. in DMEM media (high glucose, 4% FBS).

[1] = target: crosslinked / purified microtubules; settings: previously reported, cited from earlier work; for Ki: read-out: biochemical Ki for microtubules
[2] = tested on: microtubules (taxane binding site) in living HeLa cells; assay: Competition binding assay with PB-GABA-Taxol in living HeLa cells (cellular Ki); settings: read-out: cellular Ki; PB-GABA-Taxol 1.5 μM, verapamil 100 μM, 37° C., 4% FBS, 3 h
Experimental: In this assay the cellular Kd was measured by varying the concentration of the fluorescent probe added to cells at equilibrium as established by kinetic assays of probe uptake. Total binding of this probe to specific and non-specific sites in cells in the presence of the efflux inhibitor verapamil was determined by flow cytometry. Non-specific binding was quantified separately by addition of excess paclitaxel with the probe under the same conditions. Subtraction of the linear non-specific binding contribution from the total binding curve was used analyze specific binding of the probe to tubulin of microtubules. Measurement of this cellular dissociation constant under equilibrium conditions further allowed conversion of the half-maximal inhibitory concentration (IC50) of unlabeled compounds into cellular inhibitory constants using an adaptation of the Cheng-Prusoff equation^44 for competitive modulators (Ki) or the allosteric equation^45 for non-competitive modulators (Kb and the cooperativity factor α) as implemented by GraphPad Prism.

mouse PKCβI-mVenus = target: T2, mouse PKCβI-mVenus (Mus musculus, UniProt P68404); assay: Apparent cellular Kd by flow cytometry, HEK293 cells overexpressing PKCβI-mVenus (Example 2); assay type: binding
T2 construct: eight plasmids encoding full length mouse PKC isozymes fused to; expressed in transfected cells; host or cells: HEK293
T2 sequence (P68404 whole entry, the tested form may be a part): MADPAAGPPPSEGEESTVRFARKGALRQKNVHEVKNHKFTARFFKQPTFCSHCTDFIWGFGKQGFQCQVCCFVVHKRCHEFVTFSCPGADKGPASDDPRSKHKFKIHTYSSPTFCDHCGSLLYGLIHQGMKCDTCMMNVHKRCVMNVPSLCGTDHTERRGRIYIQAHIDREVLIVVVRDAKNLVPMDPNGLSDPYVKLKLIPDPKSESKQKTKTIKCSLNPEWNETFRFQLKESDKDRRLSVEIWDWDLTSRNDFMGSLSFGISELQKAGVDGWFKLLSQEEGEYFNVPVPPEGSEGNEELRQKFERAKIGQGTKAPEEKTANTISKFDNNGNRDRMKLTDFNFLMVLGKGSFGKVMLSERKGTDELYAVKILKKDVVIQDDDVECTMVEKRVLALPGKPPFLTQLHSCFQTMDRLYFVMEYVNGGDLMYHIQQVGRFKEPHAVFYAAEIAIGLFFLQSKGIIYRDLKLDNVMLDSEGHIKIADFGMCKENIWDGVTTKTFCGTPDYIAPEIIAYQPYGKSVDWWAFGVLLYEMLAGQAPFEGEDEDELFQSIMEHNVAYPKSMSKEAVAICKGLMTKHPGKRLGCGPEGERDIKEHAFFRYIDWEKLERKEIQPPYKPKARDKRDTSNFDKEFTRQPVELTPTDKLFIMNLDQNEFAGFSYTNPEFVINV
Experimental: The apparent Kd values of these fluorescent probes were measured using different PKC isozymes (e.g., PKCβI, FIGS. 20A-20D). HEK293 cells were transfected to overexpress PKCβ-mVenus and treated with probes in the presence of verapamil (100 μM) as an inhibitor of efflux.

[3] = tested on: microtubules in living HeLa cells; assay: Allosteric modulator assay with PB-GABA-Taxol in living HeLa cells (cellular Kb, α); settings: PB-GABA-Taxol 1.5 μM, verapamil 100 μM, 3 h, 37° C.; for Kb: read-out: cellular Kb (allosteric modulator)
Excerpt: In this model, two compounds that engage tubulin at different binding sites influence the binding of each other through cooperativity. […] Smaller cooperativity factors (α) represent stronger effects on binding of the orthosteric probe. For these allosteric modulators, the apparent cellular affinity was defined as Kb, and the mathematical relationship between Kb and α is provided (equation 3).
The experimental method for allosteric binding assays was identical to the competition binding assays described previously. However, because it is inaccurate to describe an allosteric modulator with a competitive inhibitory constant (Ki), we used an allosteric modulator model (Kb) for data analysis. […] The observed occupancy of the orthosteric ligand is defined as KApp and is determined by the equilibrium dissociation constant of the orthosteric ligand (Kd), the concentration of allosteric ligand, its affinity for the receptor (Kb), and the strength by which the allosteric ligand affects receptor binding to the orthosteric ligand as defined by the cooperativity factor (a).

Compound	Ki [1] [µM]	Ki [2] [µM]	cooperativity factor α [3]	Kb [3] [µM]	also measured
C#CCN(CCCCCCCCCCCCNC(=O)c1cc2cc(F)c(O)c(F)c2oc1=O)C(=O)O[C@@]12[C@H](O)[C@@H](C)[C@@]3(O)[C@@H](C=C(CO)C[C@]4(O)C(=O)C(C)=C[C@@H]34)[C@@H]1C2(C)C [probe 48, (1aR,1bS,4aR,7aS,7bS,8R,9R,9aS)-4a,7b,9-trihydroxy-3-(hydroxymethyl)-1,1,6,8-tetramethyl-5-oxo-1,1a,1b,4,4a,5,7a,7b,8,9-decahydro-9aH-cyclopropa[3,4]benzo[1,2-e]azulen-9a-yl (12-(6,8-difluoro-7-hydroxy-2-oxo-2H-chromene-3-carboxamido)dodecyl)(prop-2-yn-1-yl)carbamate]					affinity relative to 33 (C1A-C1A-EYFP (PKCγ)): ~2 fold; Kd (C1A-C1A-EYFP (PKCγ); verapamil 100 μM, 90 min, 37° C., DMEM high glucose, 4% FBS, read-out: apparent Kd): 2 µM
CC(=O)O[C@@]12CO[C@@H]1C[C@H](O)[C@@]1(C)C(=O)[C@H](O)C3=C(C)[C@@H](OC(=O)[C@H](O)[C@@H](NC(=O)OC(C)(C)C)c4ccccc4)C[C@@](O)([C@@H](OC(=O)c4ccccc4)[C@H]21)C3(C)C [docetaxel]	0.017 ± 0.006	0.016			
CC1=C[C@H]2[C@@]3(O)[C@H](C)[C@@H](O)[C@]4(OC(=O)N(C)CCCCCCCCN(C)C(=O)c5cc6cc(F)c(O)c(F)c6oc5=O)[C@H]([C@@H]3C=C(CO)C[C@]2(O)C1=O)C4(C)C [probe 32, (1aR,1bS,4aR,7aS,7bS,8R,9R,9aS)-4a,7b,9-trihydroxy-3-(hydroxymethyl)-1,1,6,8-tetramethyl-5-oxo-1,1a,1b,4,4a,5,7a,7b,8,9-decahydro-9aH-cyclopropa[3,4]benzo[1,2-e]azulen-9a-yl (8-(6,8-difluoro-7-hydroxy-N-methyl-2-oxo-2H-chromene-3-carboxamido)octyl)(methyl)carbamate]					Kd (mouse PKCβI-mVenus): 63 µM
CO[C@H]1C(=O)[C@]2(C)[C@@H](OC)C[C@H]3OC[C@@]3(OC(C)=O)[C@H]2[C@H](OC(=O)c2ccccc2)[C@]2(O)C[C@H](OC(=O)[C@H](O)[C@@H](NC(=O)OC(C)(C)C)c3ccccc3)C(C)=C1C2(C)C [cabazitaxel]	0.0074 ± 0.0009	0.006			
COc1cc2cc(c1Cl)N(C)C(=O)C[C@H](OC(=O)[C@H](C)N(C)C(C)=O)[C@]1(C)O[C@H]1[C@H](C)[C@@H]1C[C@@](O)(NC(=O)O1)[C@H](OC)/C=C/C=C(\C)C2 [maytansine]			0.21	0.003	
CC[C@]1(O)C[C@@H]2CN(CCc3c([nH]c4ccccc34)[C@@](C(=O)OC)(c3cc4c(cc3OC)N(C)[C@H]3[C@@](O)(C(=O)OC)[C@H](OC(C)=O)[C@]5(CC)C=CCN6CC[C@]43[C@@H]65)C2)C1 [vinblastine]			0.18	0.007	Kd ([1]; read-out: biochemical Kd for microtubules): 0.19 to 1 µM
